Here are results for 24 compounds from patent US7208526B2, “Styrylsulfonamides” (Hoffmann-La Roche Inc., priority 2005, dated 2007).

Structures can show the parent of a compound that is named as a salt.

In this assay the test system is HCT 116 cells (human colon carcinoma, ATCC-No. CCl-247). In words: Viability assay in HCT 116 cells (CellTiter-Glo Luminescent Cell Viability Assay). Particulars: 10 concentrations 30 μM to 0.0015 μM, incubation 120 h (5 days), luminescence (ATP), triplicate. In kind it is cell-based. From the text: Viability Assay in HCT 116 Cells
This assay is a homogeneous method of determining the number of viable cells in culture based on quantitation of the ATP present, an indicator of metabolically active cells. The assay is designed for use with multiwell formats, making it ideal for automated high-throughput screening (HTS), cell proliferation and cytotoxicity assays. The homogeneous assay procedure involves adding a single reagent (containing luciferase, luciferan substrate, and buffer) directly to cells cultured in serum-supplemented medium. Cell washing, removal of medium and multiple pipetting steps are not required. The system detects as few as 15 cells/well in a 384-well format in 10 minutes after adding reagent and mixing.
The homogeneous “add-mix-measure” format results in cell lysis and generation of a luminescent signal proportional to the amount of ATP present. The amount of ATP is directly proportional to the number of cells present in culture. The above-referenced assay generates a “glow-type” luminescent signal, produced by the luciferase reaction, which has a half-life generally greater than five hours, depending on cell type and medium used. The extended half-life eliminates the need to use reagent injectors and provides flexibility for continuous or batch mode processing of multiple plates. The unique homogeneous format avoids errors that may be introduced by other ATP measurement methods that require multiple steps.
For the assay the cells were seeded in 384 well plates, 1000 cells per well, in the same medium. […] After 5 days the viability assay was done according to the instructions of the manufacturer. In brief: the cell-plate was equilibrated to room temperature for approximately 30 minutes and then reagent (containing luciferase, luciferan substrate, and buffer) was added. The contents were carefully mixed for 15 minutes to induce cell lysis. After 45 minutes the luminescent signal was measured in Victor 2, (scanning multiwell spectrophotometer, Wallac).
In order to achieve a final concentration of 30 μM as highest concentration […] of 10 mM compound stock solution were added directly to 163 μl media. Then step e) of the dilution procedure described below, was followed.
Analysis: • Add 30 μl of reagent containing luciferase, luciferan substrate, and buffer per well, • shake 15 minutes at room temperature • incubate further 45 minutes at room temperature without shaking
Measurement: • Victor 2 scanning multiwell spectrophotometer (Wallac), Luminescence mode (0.5 sec/read, 477 nm) • Determine IC50 using a non-linear curve fit (XLfit® software [ID Business Solution Ltd., Guilford, Surrey, UK])
For orientation: IC50 means the concentration that gives 50% inhibition. High values mean weaker potency in that assay, low ones greater potency in that assay. Compound `O=C(NS(=O)(=O)/C=C/c1ccc(C(F)(F)F)cc1)c1ccc(F)cc1Br` [Example 4-17, (E)-2-(4-Trifluoromethyl-phenyl)-ethenesulfonic acid 2-bromo-4-fluoro-benzoylamide; sodium salt] returned a concentration for half-maximal inhibition (IC50) of 0.5 to 15 µM. In turn, `Cc1ccc(/C=C/S(=O)(=O)NC(=O)c2ccc(F)cc2C(F)(F)F)c(C)c1` [Example 1-20, (E)-2-(2,4-Dimethyl-phenyl)-ethenesulfonic acid 4-fluoro-2-trifluoromethyl-benzoylamide; sodium salt] registered an IC50 of 0.5 to 15 µM. Turning to `Cc1ccc(/C=C/S(=O)(=O)NC(=O)c2ccc(Cl)cc2Cl)c(C)c1` [Example 1-4, (E)-2-(2,4-Dimethyl-phenyl)-ethenesulfonic acid 2,4-dichloro-benzoylamide], the concentration for half-maximal inhibition (IC50) was 0.5 to 15 µM.

Regarding `COc1ccccc1/C=C/S(=O)(=O)NC(=O)c1ccc(Cl)cc1Cl` [Example 1-5, (E)-2-(2-Methoxy-phenyl)-ethenesulfonic acid 2,4-dichloro-benzoylamide], the IC50 was in the range of 0.5 to 15 µM.

Compound `O=C(NS(=O)(=O)/C=C/c1ccc(OC(F)(F)F)cc1)c1ccc(F)cc1Br` [Example 4-22, (E)-2-(4-Trifluoromethoxyphenyl)-ethenesulfonic acid 2-bromo-4-fluoro-benzoylamide; sodium salt] returned a half-inhibitory concentration (IC50) of 0.5 to 15 µM. Turning to `O=C(NS(=O)(=O)/C=C/c1ccc(C(F)(F)F)cc1)c1ccc(F)cc1C(F)(F)F` [Example 1-42, (E)-2-(4-Trifluoromethyl-phenyl)-ethenesulfonic acid 4-fluoro-2-trifluoromethyl-benzoylamide; sodium salt], the IC50 lay in the range of 0.5 to 15 µM.

Take `Cc1cc(Cl)ccc1C(=O)NS(=O)(=O)/C=C/c1ccccc1` [Example 6-6, (E)-2-Phenyl-ethenesulfonic acid 4-chloro-2-methyl-benzoylamide; sodium salt]: the 50% inhibitory concentration (IC50) was in the range of 0.5 to 15 µM. In turn, `O=C(NS(=O)(=O)/C=C/c1ccc(F)cc1F)c1ccc(Cl)cc1Cl` [Example 1-8, (E)-2-(2,4-Difluoro-phenyl)-ethenesulfonic acid 2,4-dichloro-benzoylamide] gave an IC50 of 0.5 to 15 µM. With `O=C(NS(=O)(=O)/C=C/c1ccc(C(F)(F)F)cc1)c1ccc(Cl)cc1Cl` [Example 1-3, (E)-2-(4-Trifluoromethyl-phenyl)-ethenesulfonic acid 2,4-dichloro-benzoylamide] the figure was 0.5 to 15 µM.

Compound `Cc1ccc(C(=O)NS(=O)(=O)/C=C/c2ccc(C(F)(F)F)cc2)c(C)c1` [Example 4-40, (E)-2-(4-Trifluoromethyl-phenyl)-ethenesulfonic acid 2,4-dimethyl-benzoylamide; sodium salt] registered an IC50 of 0.5 to 15 µM. As for `O=C(NS(=O)(=O)/C=C/c1ccccc1Cl)c1ccc(Cl)cc1Cl` [Example 1-7, (E)-2-(2-Chlorophenyl)-ethenesulfonic acid 2,4-dichloro-benzoylamide], the figure is 0.5 to 15 µM; as for `COc1ccccc1/C=C/S(=O)(=O)NC(=O)c1ccc(Cl)cc1C` [Example 4-4, (E)-2-(2-Methoxy-phenyl)-ethenesulfonic acid 4-chloro-2-methyl-benzoylamide; sodium salt], 0.5 to 15 µM; as for `COc1cccc(/C=C/S(=O)(=O)NC(=O)c2ccc(Br)cc2Cl)c1` [Example 4-25, (E)-2-(3-Methoxy-phenyl)-ethenesulfonic acid 4-bromo-2-chloro-benzoylamide; sodium salt], 0.5 to 15 µM. `COc1cc(F)ccc1C(=O)NS(=O)(=O)/C=C/c1ccccc1` [Example 5-3, (E)-2-Phenyl-ethenesulfonic acid 4-fluoro-2-methoxy-benzoylamide] came in with an IC50 of 0.5 to 15 µM.

Compound `O=C(NS(=O)(=O)/C=C/c1ccccc1)c1ccc(Cl)cc1Br` [Example 5-4, (E)-2-Phenyl-ethenesulfonic acid 2-bromo-4-chloro-benzoylamide] came in with a concentration for half-maximal inhibition (IC50) of 0.5 to 15 µM. With `COc1cc(C(F)(F)F)ccc1C(=O)NS(=O)(=O)/C=C/c1ccccc1` [Example 5-6, (E)-2-Phenyl-ethenesulfonic acid 2-methoxy-4-trifluoromethyl-benzoylamide] the figure was 0.5 to 15 µM; with `O=C(NS(=O)(=O)/C=C/c1ccccc1O)c1ccc(Cl)cc1Cl` [Example 1-33, (E)-2-(2-Hydroxy-phenyl)-ethenesulfonic acid 2,4-dichloro-benzoylamide], 0.5 to 15 µM. As for `COc1cccc(/C=C/S(=O)(=O)NC(=O)c2ccc(F)cc2Br)c1` [Example 4-18, (E)-2-(3-Methoxy-phenyl)-ethenesulfonic acid 2-bromo-4-fluoro-benzoylamide; sodium salt], the figure is 0.5 to 15 µM; as for `Cc1ccc(C(=O)NS(=O)(=O)/C=C/c2ccccc2)c(Br)c1` [Example 6-3, (E)-2-Phenyl-ethenesulfonic acid 2-bromo-4-methyl-benzoylamide; sodium salt], 0.5 to 15 µM; as for `Cc1cc(Br)ccc1C(=O)NS(=O)(=O)/C=C/c1ccc(C(F)(F)F)cc1` [Example 4-35, (E)-2-(4-Trifluoromethyl-phenyl)-ethenesulfonic acid 4-bromo-2-methyl-benzoylamide; sodium salt], 0.5 to 15 µM. As for `Cc1ccc(C(=O)NS(=O)(=O)/C=C/c2ccccc2)c(C(F)(F)F)c1` [Example 5-2, (E)-2-Phenyl-ethenesulfonic acid 4-methyl-2-trifluoromethyl-benzoylamide], the figure is 0.5 to 15 µM; as for `O=C(NS(=O)(=O)/C=C/c1ccc(OC(F)(F)F)cc1)c1ccc(F)cc1Cl` [Example 1-39, (E)-2-(4-Trifluoromethoxyphenyl)-ethenesulfonic acid 2-chloro-4-fluoro-benzoylamide; sodium salt], 0.5 to 15 µM. In the case of `O=C(NS(=O)(=O)/C=C/c1c(F)cc(F)cc1F)c1ccc(Cl)cc1Cl` [Example 1-36, (E)-2-(2,4,6-Trifluoro-phenyl)-ethenesulfonic acid 2,4-dichloro-benzoylamide; sodium salt], the half-maximal inhibitory concentration (IC50) lay within 0.5 to 15 µM. As to `COc1ccccc1/C=C/S(=O)(=O)NC(=O)c1ccc(C(F)(F)F)cc1C(F)(F)F` [Example 1-28, (E)-2-(2-Methoxy-phenyl)-ethenesulfonic acid 2,4-bis-trifluoromethyl-benzoylamide; sodium salt], the concentration for half-maximal inhibition (IC50) was in the range of 0.5 to 15 µM.
